Source: patent US20200352976A1, “HYPOMETHYLATING AGENTS FOR USE IN TREATMENT OF CANCER” (Otsuka Pharmaceutical Co., Ltd, priority 2019, published 2020)

Experiments:
[1] = Phase 3 trial pharmacokinetics and exposure response; assay type: in vivo, human
Experimental: A previously developed Population PK model was applied to calculate model-derived estimates for total cycle exposures (Cmax and AUC) from sparse PK samples collected in Cycle 1 for Compound I-1 and decitabine for use in exposure-response analysis for efficacy and safety. The analyses of exposure-efficacy and exposure-safety relationships were performed separately for patients who received Compound I-1 and patients who received decitabine IV. The following analyses were performed to assess relationships of CR with exposure for each exposure measure: frequencies of CR were tabulated and compared between tertiles of exposure; distributions of exposure were compared for patients with and without CR using box plots; and probability of CR was explored using logistic regression models.

[2] = Phase 3 trial safety: adverse events, ECG, mortality; assay type: in vivo
From the text: Two co-primary endpoints were used: complete response (CR) rate based on modified International Working Group (IWG) 2003 AML Response Criteria and OS (the number of days from randomization to death). Secondary endpoints included CRc (CR+CR with incomplete blood count recovery [CRi]+CR with incomplete platelet recovery [CRp]) rate, number of days alive and out of the hospital (NDAOH), progression-free survival (PFS), health related quality of life (QOL) by EQ-5D (consisting of the EQ-5D-5L descriptive system and the EQ Visual Analogue Scale [EQ VAS]), duration of CR (the time from first CR to time of relapse), incidence and severity of adverse events (AEs), and 30- and 60-day all-cause mortality.
The incidence and severity of adverse events (AEs) and 30- and 60-day all-cause mortality were summarized with descriptive statistics. No formal statistical testing between the treatment groups was planned for safety assessments.

Q: Which “Exposure to active metabolite decitabine” value ([1]; Compound I-1 SC vs decitabine IV) does the source give for `Nc1ncn([C@H]2CC(OP(=O)(O)OC[C@H]3O[C@@H](n4cnc5c(=O)[nH]c(N)nc54)CC3O)[C@@H](CO)O2)c(=O)n1` (stereo partly shown) [Compound I-1] here?
A: Its value is “longer exposure to the active metabolite decitabine”.

Q: And the “Time of highest mean plasma Compound I-1 concentration (first collection time point)” value ([1]; after SC injection)?
A: The value was 1.5 h.

Q: What about the “Related AE with an outcome of death, each of: hematophagy histiocytosis, small intestinal hemorrhage, general physical health deterioration, mucormycosis, osteonecrosis” value ([2]; 1 subject each) of the same molecule?
A: The value was 0.2%.

Q: What about the “Discontinuations due to a related AE that was an infection event” value ([2]; human, in vivo) of the same molecule?
A: The value was 7 subjects.

Q: What about the “Dose reductions due to AEs” value ([2]; human, in vivo) of the same molecule?
A: Its value is 6.0%.

Q: And the “Related SAE anemia” value ([2]; human, in vivo)?
A: Its value is 1.0%.

Q: And the “Related SAE febrile neutropenia” value ([2]; human, in vivo)?
A: Its value is 13.7%.

Q: And the “Related SAE pneumonia” value ([2]; human, in vivo)?
A: Its value is 8.5%.

Q: What about the “Related SAE sepsis” value ([2]; human, in vivo) of the same molecule?
A: Its value is 4.0%.

Q: And the “Related SAE septic shock” value ([2]; human, in vivo)?
A: Its value is 1.2%.

Q: What about the “Related SAE thrombocytopenia” value ([2]; human, in vivo) of the same molecule?
A: The value was 1.7%.

Q: What about the “SAE febrile neutropenia incidence” value ([2]; human, in vivo) of the same molecule?
A: The value was 25.2%.

Q: What about the SAE pneumonia incidence ([2]; human, in vivo) of the same molecule?
A: The SAE pneumonia incidence was 28.4%.

Q: And the SAE sepsis incidence ([2]; human, in vivo)?
A: Its SAE sepsis incidence is 15.0%.

Q: What about the “Treatment Discontinuation Before 4 Cycles: Adverse Event” value ([2]; human, in vivo) of the same molecule?
A: Its value is 6.4%.

Q: And the “Treatment Discontinuation Before 6 Cycles: Adverse Event” value ([2]; human, in vivo)?
A: Its value is 7.4%.

Q: What about the “Treatment delays due to adverse events” value ([2]; human, in vivo) of the same molecule?
A: The value was 48.1%.

Q: And the “AE with an outcome of death: febrile neutropenia” value ([2]; human, in vivo, 60 mg/m^2)?
A: Its value is 0.2%.

Q: And the “AE with an outcome of death: pneumonia” value ([2]; human, in vivo, 60 mg/m^2)?
A: Its value is 5.0%.

Q: What about the “AE with an outcome of death: sepsis” value ([2]; human, in vivo, 60 mg/m^2) of the same molecule?
A: The value was 6.5%.

Q: And the “AE with an outcome of death: septic shock” value ([2]; human, in vivo, 60 mg/m^2)?
A: Its value is 2.0%.

Q: And the “Related AE with an outcome of death: febrile neutropenia” value ([2]; human, in vivo, 60 mg/m^2)?
A: Its value is 0.2%.

Q: And the Thirty-day all-cause mortality ([2]; human, in vivo, 60 mg/m^2, 30 day)?
A: The Thirty-day all-cause mortality was 11.2%.

Q: And the 60-day mortality ([2]; human, in vivo, 60 mg/m^2, 60 day)?
A: Its 60-day mortality is 20.9%.

Q: What about the “Effect on heart rate (ECG)” value ([2]; in vivo) of the same molecule?
A: Its value is “no effect on heart rate”.

Q: And the “Effects on ECG parameters” value ([2]; in vivo)?
A: The value was “No effects on ECG parameters were observed”.

Q: And the “Treatment Discontinuation Before 4 Cycles: Death” value ([2]; n = 408 I-1, n = 407 TC)?
A: Its value is 17.6%.

Q: What about the “Treatment Discontinuation Before 6 Cycles: Death” value ([2]; n = 408 I-1, n = 407 TC) of the same molecule?
A: The value was 22.5%.
